Results on 3 compounds are retold here after patent US8552163B2, “Liver-targeting agents and their synthesis” (Johns Hopkins University, priority 2009, dated 2013).

The target in one data set is T1, ASGPR (Mus musculus, UniProt P24721+P34927).
T1 construct: host or cells: murine hepatocytes (purchased, plated in 24-well plates)
T1 sequence (P34927 1-284): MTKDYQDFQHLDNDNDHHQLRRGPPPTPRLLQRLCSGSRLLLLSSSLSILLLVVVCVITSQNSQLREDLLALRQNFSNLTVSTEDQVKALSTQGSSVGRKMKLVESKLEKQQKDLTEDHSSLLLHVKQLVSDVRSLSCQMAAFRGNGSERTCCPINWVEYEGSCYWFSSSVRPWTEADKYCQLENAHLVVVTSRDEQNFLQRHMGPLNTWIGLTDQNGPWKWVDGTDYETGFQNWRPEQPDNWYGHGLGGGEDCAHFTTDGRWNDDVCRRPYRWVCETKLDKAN
T1 sequence (P24721 1-301): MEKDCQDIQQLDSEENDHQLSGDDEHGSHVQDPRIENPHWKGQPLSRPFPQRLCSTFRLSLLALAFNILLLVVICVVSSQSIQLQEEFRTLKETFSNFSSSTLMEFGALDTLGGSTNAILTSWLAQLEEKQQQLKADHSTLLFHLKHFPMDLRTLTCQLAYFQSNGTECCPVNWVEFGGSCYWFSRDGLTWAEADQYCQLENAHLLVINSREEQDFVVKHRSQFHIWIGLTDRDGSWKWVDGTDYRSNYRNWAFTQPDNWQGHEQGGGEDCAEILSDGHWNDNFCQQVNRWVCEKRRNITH
Briefly: Competitive binding assay with Eu-ASOR on murine hepatocyte (time-resolved fluorometry). To be noted: for binding to ASGPR compared with that of YEE or YDD: relative to YEE or YDD, from the IC50 data of Table 1. How it is done:
With Eu-asialo-orosomucoid (Eu-ASOR) as a reference material, the binding affinity of the multivalent glyco-ligands (DCM-Lys(ah-GalNAc)3, DCM-Lys(GahGalNAc)3, DCM-Lys(ahLac)3, AHA-Asp[DCM-Lys(ahLac)3]2) and murine hepatocyte can be determined by competitive assay to obtain IC50 (concentration of 50% inhibition), and the lower the IC50 is, the higher the binding affinity. The murine hepatocyte (Lonza Biotechnology Company, Walkersville, Md.) is plated in a 24-well plate in advance, and the reaction occurs in each well, into which (i) Eu-ASOR 10 nM (ii) hepatocyte basic medium with 5 mM calcium chloride, and (iii) five different concentrations of multivalent ligands of 1 μM-0.8 nM are added. After culturing with shaking for 1 hr in the cold, the unbound ligands are removed by washing with the hepatocyte basic medium containing calcium chloride. Time-resolved fluorometry (TRF) is performed, using an enhancement solution (15 μM β-naphthoyl trifluoroacetone, 50 μM tri-n-octyl-phosphine oxide, 0.1% triton X-100 in 0.1 M acetic acid, titrated with potassium hydrogen phthalate to pH 3.2). The enhancement solution reacts with Eu^3+ to form an Eu chelate, which can emit at 615 nm when excited at 340 nm. With the logarithm of the concentration of saccharide chain peptide as X axis, the emitted fluorescence value as Y axis, the fluorescence value without adding glycopeptide being set as 100%, the IC50 values of each ligand can be calculated accordingly.

For data set [1] the following is noted: as first reported by Lee (1983); cited from earlier work.

For the compound `CC(=O)N[C@H]1[C@H](OCCCCCCNC(=O)CNC(=O)CN(CC(=O)NCC(=O)NCCCCCCO[C@@H]2O[C@H](CO)[C@H](O)[C@H](O)[C@H]2NC(C)=O)[C@@H](CCCCN)C(=O)NCC(=O)NCCCCCCO[C@@H]2O[C@H](CO)[C@H](O)[C@H](O)[C@H]2NC(C)=O)O[C@H](CO)[C@H](O)[C@@H]1O` [DCM-Lys(GahGalNAc)3], the IC50 on ASGPR (competition with 10 nM Eu-ASOR, murine hepatocyte, 5 mM calcium chloride, 1 hr in the cold, read-out: IC50 (concentration of 50% inhibition), binding strength of saccharide chains and murine hepatocyte) was found to be 1 nM. Further, the “binding to ASGPR compared with that of YEE or YDD” value on ASGPR is 10 times.

`NCCCCCC(=O)NC(CC(=O)NCCCCC(C(=O)NCCCCCCOC1OC(CO)C(OC2OC(CO)C(O)C(O)C2O)C(O)C1O)N(CC(=O)NCCCCCCOC1OC(CO)C(OC2OC(CO)C(O)C(O)C2O)C(O)C1O)CC(=O)NCCCCCCOC1OC(CO)C(OC2OC(CO)C(O)C(O)C2O)C(O)C1O)C(=O)NCCCCC(C(=O)NCCCCCCOC1OC(CO)C(OC2OC(CO)C(O)C(O)C2O)C(O)C1O)N(CC(=O)NCCCCCCOC1OC(CO)C(OC2OC(CO)C(O)C(O)C2O)C(O)C1O)CC(=O)NCCCCCCOC1OC(CO)C(OC2OC(CO)C(O)C(O)C2O)C(O)C1O` (stereo not shown) [AHA-Asp[DCM-Lys(ahLac)3]2]: the “binding to ASGPR compared with that of YEE or YDD” value on ASGPR was “the same binding strength as that of YEE or YDD”.

With `CC(=O)N[C@H]1[C@H](OCCCCCCNC(=O)CC[C@H](NC(=O)CC[C@H](NC(=O)[C@@H](N)Cc2ccc(O)cc2)C(=O)NCCCCCCO[C@@H]2O[C@H](CO)[C@H](O)[C@H](O)[C@H]2NC(C)=O)C(=O)NCCCCCCO[C@@H]2O[C@H](CO)[C@H](O)[C@H](O)[C@H]2NC(C)=O)O[C@H](CO)[C@H](O)[C@@H]1O` [YEE(ahGalNAc)3], in data set [1], the solubility entry is given as “poor solubility”.
